Data set [1] can be described thus: Maximum daily dose (MDD) and acceptable intake (AI) for each nitrosamine formed by each drug.
For data set [2] the following is noted: acceptable intake of the nitrosamine per day; cited from earlier work.
Data set [3] is described as follows: Raw active and film studies with propranolol: Nitroso-propranolol (NPO) by LC-MS. The class given is physicochemical. To be noted: raw active 5 g in pouch in 250 ml bottle with 1 g propranolol; 50° C./75% RH, 4 weeks. Here is the method: Raw active or film with active were tested in 250 ml bottles with 1 g of propranolol (beads), to measure formation of Nitroso-propranolol (NPO). When present, the film (2 pieces of A2×2 inches) was wrapped inside bottle(s). Raw active (5 g) was placed in a pouch inside bottle(s).
Humidity was provided by vials containing a salt solution: ASAPprime™ vials (FreeThink Technologies, Branford CT, USA). A screw cap was used, with no induction seal.
NPO was directly measured by LC-MS (liquid chromatography-mass spectroscopy). The detection limit is approximately 1% of the results reported.

Data set [4] can be described thus: Effect of active agent (sachet or film) on nitrite in GC vial headspace, cyclohexene derivative method. The class given is physicochemical. As to conditions: 50 mg active in sachet hanging in GC vial headspace over sulfuric acid + potassium nitrite; 24 hours at 60° C. On the procedure: A 1 inch×0.5 inch tea bag sachet containing 50 mg±2 mg of a potential active agent, or a 1 cm^2 film was placed hanging in a GC vial headspace. […] 1 mL of 1M sulfuric acid solution and 1 mL of potassium nitrite solution (1 g/10 mL) was placed into the GC vial. The film or sachet was placed suspended inside the GC vial, and sealed, and aged for 24 hours at 60° C. GC-MS was conducted on the headspace using the derivative method. The methodology is based on a chemically derivative method that reacts all available NOx or nitrite directly into a measurable compound (cyclohexene) using acidified sodium cyclamate. The reaction is shown below:
It will be understood that both the nitrite anion (NO2^−) and […] (HNO2), with the relative amounts being determined by solution pH, will be quantified by this method, and gaseous NOx can also be quantified, due to its equilibrium with aqueous phase species. For simplicity, results of this test may be described as measuring the amount of nitrite.

Data set [5] in a line: Effect of raw active on nitrite, headspace GC (modified FDA protocol). The class given is physicochemical. To be noted: raw active 50 mg in GC vial with sulfuric acid + potassium nitrite, 24 hours at 60° C., estimated ppm of nitrous acid in headspace. On the procedure:
The active sachet was placed inside the GC vial and sealed and aged for 24 hours at 60° C. Controls only contained the liquid. GC was conducted on the headspace using a modified version of the FDA protocol for GC-MS/MS to detect nitrite. […] Food & Drug Administration (FDA), Apr. 29, 2019, published online.

Data set [6] can be described thus: Film and sachet comparison in monolayer bottles: nitrite. The class given is physicochemical. As to conditions: raw active in sachet in monolayer bottle; 60° C., 40% RH, 6 days. Here is the method:
For raw active samples, the appropriate mass was weighed as shown in Table 20 and was placed in a sachet which was closed. Films were cut to 120 mm×65 mm. Film thickness was from about 0.3 mm to about 1.2 mm.
A 20 mL scintillation vial was placed in each bottle. 3.5 mL of potassium nitrite and 3.5 mL of sulfuric acid were added to the scintillation vial. GC-MS was conducted on the headspace using the cyclohexene derivative method for nitrite. Samples were aged at 60° C. and 40% RH for 6 days.

Data set [7] is described as follows: NO adsorption by raw active and film, fixed bed reactor. As to conditions: raw active, 250 mg, 22° C. The class given is physicochemical. Here is the method: (§1) NO and NO2 adsorption experiments were conducted within a fixed bed reactor at 22° C. In each experimental run, 250 mg of the sample was meticulously deposited onto a fused silica frit positioned within a vertical quartz reactor, which boasted an internal diameter of 6 mm. Prior to each experiment, the system underwent a thorough purge using nitrogen (N) to eliminate any residual gases and ensure a clean starting point. Following the purge, calibration procedures were meticulously carried out to guarantee the accuracy of the concentration measurements. This involved precisely calibrating the ROSEMOUNT NGA 2000 detector to establish a reliable baseline for the subsequent experiments. […] Throughout the experiments, the concentrations of outlet gases, namely NO and NO2, were continuously monitored. This real-time analysis was facilitated by the highly sensitive ROSEMOUNT NGA 2000 detector (St. Louis, MO, USA). To account for any background signals or potential interferences, a blank experiment was conducted using an empty reactor. The obtained results from this blank experiment were subtracted from the measurements of the sample, ensuring that the recorded concentrations accurately reflected the adsorption behavior of NO2 by the sample. This meticulous approach enhances the reliability and precision of the experimental findings.

Data set [8] in a line: NO2 adsorption by raw active and film, fixed bed reactor. In kind it is physicochemical. As to conditions: raw active, 250 mg, 22° C.; for NO2 Adsorbed Amount: 505 ppm of NO2. On the procedure:
as §1

For data set [9] the following is noted: FDA acceptable intake limit; cited from earlier work.

Consider `O=NN1CCC(c2ccccc2)CC1` [1-nitroso-4-phenylpiperdine], for which the “AI (ppm)” value in data set [1] (4-Phenylpiperdine (CPCA Calculated), MDD (ketophrofen) 200 mg) is 2 ppm; in data set [1] (4-Phenylpiperdine (CPCA Calculated), MDD (meperide) 600 mg), 0.67 ppm; in [1] (4-Phenylpiperdine (CPCA Calculated), MDD (pethidine) 400 mg), 1 ppm. Also, the “average AI” value in [1] (average of the three MDD-based values) is listed as 1.2 ppm.
In the case of `CN(CC(O)c1cccc(O)c1)N=O` (stereo not drawn) [1-nitroso-phenylephrine], the AI /day in data set [2] is reported as 100 ng. Besides, the “AI (ppm)” value in data set [1] (Phenylephrine, MDD 60 mg) was 1.67 ppm.
On to `Nc1ccc(C(=O)O)cc1` [4-aminobenzonic acid], for which, in data set [3], the “NPO (% Decrease)” value is 7%.
Consider `O=C1O[C@H]([C@@H](O)CO)C(O)=C1O` [Ascorbic Acid, L-ascorbic acid], for which the results for the “Nitrite (% decrease)” value in data set [4] and in [6] were 23.7% and −111.1%, respectively. The results for the “Nitrite (ppm)” value in [5] and in data set [5] (listed as Ascorbic acid) were 0.08 ppm and “most effective raw active at decreasing the level of nitrite”, respectively. Also, in [7], the “NO Adsorbed Amount” value is recorded as 0.14 mg/g. Further, the “NO2 Adsorbed Amount” value in data set [8] is listed as 2.50 mg/g. For the same compound, in data set [3], the “NPO (% Decrease)” value is recorded as 9%.
With `CC1=C(/C=C/C(C)=C/C=C/C(C)=C/C=C/C=C(C)/C=C/C=C(C)/C=C/C2=C(C)C(=O)[C@@H](O)CC2(C)C)C(C)(C)C[C@H](O)C1=O` [Astaxanthin], the “Nitrite (% decrease)” value in data set [4] worked out at 35.0%.
With `OC[C@H]1O[C@@H]2O[C@H]3[C@H](O)[C@@H](O)[C@@H](O[C@H]4[C@H](O)[C@@H](O)[C@@H](O[C@H]5[C@H](O)[C@@H](O)[C@@H](O[C@H]6[C@H](O)[C@@H](O)[C@@H](O[C@H]7[C@H](O)[C@@H](O)[C@@H](O[C@H]8[C@H](O)[C@@H](O)[C@@H](O[C@H]1[C@H](O)[C@H]2O)O[C@@H]8CO)O[C@@H]7CO)O[C@@H]6CO)O[C@@H]5CO)O[C@@H]4CO)O[C@@H]3CO` [Beta Cyclodextrin Powder, Beta Cyclodextrin], the “Nitrite (% decrease)” value in data set [4] is 25.6%. Besides, the “NO2 Adsorbed Amount” value in [8] worked out at 2.96 mg/g.
For the compound `O=C(O)/C=C/c1ccc(O)c(O)c1` [Caffeic Acid], the “Nitrite (% decrease)” value in data set [4] is 31.6%.
For the compound `O=C([O-])[O-].[Ca+2]` [Calcium Carbonate], the “Nitrite (% decrease)” value in data set [4] stood at 46.9%. For the same compound, in data set [7], the “NO Adsorbed Amount” value was determined as 0.15 mg/g. The “NO2 Adsorbed Amount” value in data set [8] is reported as 7.75 mg/g. Besides, the “NO2 Adsorbed Amount (mg/g)” value in data set [8] (505 ppm of NO2, listed as calcium carbonate) is reported as “most effective NO2 adsorber from amongst the raw actives tested”.
As to `O=S(=O)([O-])[O-].[Ca+2]` [Calcium Sulfate], the “Nitrite (% decrease)” value in data set [4] is on record as 22.2%.
For `COC1=C(OC)C(=O)C(C/C=C(\C)CC/C=C(\C)CC/C=C(\C)CC/C=C(\C)CC/C=C(\C)CC/C=C(\C)CC/C=C(\C)CC/C=C(\C)CC/C=C(\C)CCC=C(C)C)=C(C)C1=O` [Coenzyme Q10], in data set [4], the “Nitrite (% decrease)” value is recorded as −7.8%.
The same measure, in the same setting: then `[O]=[Fe][O][Fe]=[O]` [Ferric Oxide], with 14.3%.
Take `COc1cc(/C=C/C(=O)O)ccc1O` [Ferulic Acid]: the “Nitrite (% decrease)” value in data set [4] worked out at 61.7%. Further, in data set [8], the “NO2 Adsorbed Amount” value is recorded as 3.27 mg/g.
For `Cl` [Hydrochloric Acid], the “Nitrite (% decrease)” value in data set [4] is 14.4%.
`N[C@@H](CS)C(=O)O` [L-cysteine]: the “NPO (% Decrease)” value in data set [3] turned out to be 2%.
Regarding `CC(C)=CCC/C(C)=C/C=C/C(C)=C/C=C/C(C)=C/C=C/C=C(C)/C=C/C=C(C)/C=C/C=C(\C)CCC=C(C)C` [Lycopene], the “Nitrite (% decrease)” value in data set [4] is given as 23.7%.
For `O=C([O-])[O-].[Mg+2]` [Magnesium Carbonate], the “Nitrite (% decrease)” value in [4] turned out to be 33.9%. In addition, in data set [8], the “NO2 Adsorbed Amount” value is on record as 8.03 mg/g.
`[Cl-].[Cl-].[Mg+2]` [Magnesium Chloride]: the “Nitrite (% decrease)” value in data set [4] is on record as −15.7%.
For `CCN(CC)N=O` [NDEA, N-nitrosodiethylamine], in data set [9], the “AI Limit” value is given as 26.5 ng/day.
Take `CC(C)N(N=O)C(C)C` [NDIPA, N-nitrosodi-2-propylamine]: the “AI Limit” value in [9] was 26.5 ng/day.
Consider `CN(C)N=O` [NDMA, N-nitrosodimethylamine], for which the AI /day in data set [2] is listed as 96 ng. Further, the “AI Limit” value in [9] is reported as 96 ng/day. Moreover, the “AI (ppm)” value in data set [1] (Ranitidine, MDD 320 mg) is 0.3 ppm.
Turning to `CCN(N=O)C(C)C` [NIPEA], in [9], the “AI Limit” value is given as 26.5 ng/day.
As to `CN(CCCC(=O)O)N=O` [NMBA], the “AI Limit” value in [9] is recorded as 96 ng/day.
As to `CCCOC(=O)c1cc(O)c(O)c(O)c1` [Propyl Gallate], the “Nitrite (% decrease)” value in data set [4] came out at 3.2%.
For `O=C1O[C@H]([C@@H](O)CO)C([O-])=C1O.[Na+]` [Sodium Ascorbate], the “NPO (% Decrease)” value in [3] turned out to be 9%.
In the case of `O=C([O-])O.[Na+]` [Sodium Bicarbonate], the “Nitrite (% decrease)” value in data set [4] is on record as 57.7%; in [6] it was 72.8%. For the same compound, the “NO Adsorbed Amount” value in data set [7] was 0.14 mg/g. For the same compound, the “NO2 Adsorbed Amount” value in [8] is recorded as 2.24 mg/g.
The like results for `[Cl-].[Na+]` [Sodium Chloride] were, in that order, 86.8%, 99.9%, 0.34 mg/g and 2.00 mg/g.
In the case of `CC1=C(/C=C/C(C)=C/C=C/C(C)=C/C=C/C=C(C)/C=C/C=C(C)/C=C/C2=C(C)C[C@@H](O)CC2(C)C)C(C)(C)C[C@H](O)C1` [Zeaxanthin], the “Nitrite (% decrease)” value in data set [4] is 26.6%.
Still for that read-out and setting: then Sodium Alginate, with 27.7%.
On the same count and under the same terms, then Vitamin A, with 11.3%.
In the case of Vitamin E, the “Nitrite (% decrease)” value in [4] is 89.8%; in data set [6] it was 31.6%. The “NO Adsorbed Amount” value in data set [7] was 0.16 mg/g. In data set [8], the “NO2 Adsorbed Amount” value is listed as 4.95 mg/g.

(Values after patent US12697277B2, “Materials and methods for mitigating the presence of nitrosamines in packaging using an active agent” (CSP TECHNOLOGIES, INC., priority 2024, dated 2026).)
